Activity calls are given as the source filed them. No cut-off for these calls is given here.
What was measured:
[1] = target: T1, C-C chemokine receptor type 2 (Homo sapiens, UniProt P41597); assay: Displacement of [125-I]MCP1 from CCR2 on human PBMC
Target sequence in this assay (P41597 whole entry): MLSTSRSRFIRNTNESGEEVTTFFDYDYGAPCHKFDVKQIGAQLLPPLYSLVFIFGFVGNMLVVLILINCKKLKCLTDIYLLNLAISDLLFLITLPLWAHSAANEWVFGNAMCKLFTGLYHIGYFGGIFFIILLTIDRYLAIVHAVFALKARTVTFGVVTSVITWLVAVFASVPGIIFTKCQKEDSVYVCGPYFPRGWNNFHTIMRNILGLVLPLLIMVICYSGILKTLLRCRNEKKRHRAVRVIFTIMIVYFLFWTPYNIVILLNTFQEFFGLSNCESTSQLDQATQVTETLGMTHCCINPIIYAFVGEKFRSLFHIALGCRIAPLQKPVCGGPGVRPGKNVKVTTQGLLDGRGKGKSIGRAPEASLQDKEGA

[2] = target: C-C chemokine receptor type 2 (Mus musculus) (UniProt P51683); assay: Binding affinity to mouse CCR2
[3] = target: C-C chemokine receptor type 5 (Mus musculus, UniProt P51682); assay: Binding affinity to mouse CCR5
[4] = target: C-C chemokine receptor type 2 (Mus musculus) (UniProt P51683); assay: Antagonist activity at CCR2 in mouse monocytes assessed as inhibition of MCP1-induced calcium flux; assay type: functional, cell-based
[5] = organism: Mus musculus; assay: Selectivity for mouse CCR2 over mouse CCR1
[6] = organism: Mus musculus; assay: Selectivity for mouse CCR2 over mouse CCR2
[7] = Oral bioavailability in mouse; assay type: ADME, organism-based; conditions: in vivo
[8] = Clearance in mouse; assay type: ADME, organism-based; conditions: in vivo
[9] = target: C-C chemokine receptor type 2 (Mus musculus) (UniProt P51683); assay: Antagonist activity at CCR2 in mouse monocytes assessed as inhibition of MCP1-induced cAMP depression; assay type: functional, cell-based
[10] = target: T1, C-C chemokine receptor type 2; assay: Displacement of [125-I]MCP1 from CCR2 on human PBMC at 1 uM
Target sequence in this assay (P41597 whole entry, looked up): as the sequence (P41597 whole entry) above

Sequence of C-C chemokine receptor type 2 (Mus musculus) (P51683 whole entry, looked up): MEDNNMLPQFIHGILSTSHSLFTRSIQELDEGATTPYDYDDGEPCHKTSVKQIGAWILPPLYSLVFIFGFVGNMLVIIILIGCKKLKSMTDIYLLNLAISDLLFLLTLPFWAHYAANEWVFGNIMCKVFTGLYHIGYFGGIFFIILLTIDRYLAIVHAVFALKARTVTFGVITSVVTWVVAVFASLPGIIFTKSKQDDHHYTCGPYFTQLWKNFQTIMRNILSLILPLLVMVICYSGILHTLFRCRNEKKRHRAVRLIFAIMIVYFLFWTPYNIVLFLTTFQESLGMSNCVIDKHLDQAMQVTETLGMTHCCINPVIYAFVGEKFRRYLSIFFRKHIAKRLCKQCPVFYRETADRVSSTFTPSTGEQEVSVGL
Sequence of C-C chemokine receptor type 5 (P51682 whole entry): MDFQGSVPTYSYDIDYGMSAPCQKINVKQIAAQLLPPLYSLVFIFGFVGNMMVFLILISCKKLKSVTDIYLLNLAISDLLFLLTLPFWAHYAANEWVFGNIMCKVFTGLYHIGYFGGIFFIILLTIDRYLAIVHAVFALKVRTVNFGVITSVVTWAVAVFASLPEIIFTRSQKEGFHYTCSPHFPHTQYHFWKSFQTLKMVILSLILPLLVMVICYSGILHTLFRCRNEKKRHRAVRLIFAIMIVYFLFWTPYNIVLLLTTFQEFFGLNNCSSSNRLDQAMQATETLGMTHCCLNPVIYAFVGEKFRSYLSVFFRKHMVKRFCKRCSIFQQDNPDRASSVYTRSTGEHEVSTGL

For `CCC[C@H](O)[C@H](CNCc1ccc(C)cc1C)NC(=O)CNC(=O)c1cc(N)cc(C(F)(F)F)c1`, which IC50 [1] is on record?
Its IC50 is 6.7 nM.

Which IC50 [1] does the source give for `CCC[C@H](O)[C@H](CNCc1ccc(C)cc1C)NC(=O)CC(=O)Nc1cc(C(=O)NCC)cc(C(F)(F)F)c1` here?
Its IC50 is 158 nM.

Which IC50 [1] does the source give for `CCC[C@H](O)[C@H](CNCc1ccc(C)cc1C)NC(=O)CC(=O)Nc1cc(NC(=O)NCC)cc(C(F)(F)F)c1` here?
Its IC50 is 40 nM.

Which IC50 [1] does the source give for `CCC[C@H](O)[C@H](CNCc1ccc(C)cc1C)NC(=O)CNC(=O)c1cc(C(F)(F)F)ccc1NC(C)C` here?
Its IC50 is 5.3 nM.

For `CCC[C@H](O)[C@H](CNCc1ccc(C)cc1C)N1CC[C@@H](NC(=O)c2cc(C(F)(F)F)ccc2NC(=O)OC(C)(C)C)C1=O`, which IC50 [1] is on record?
The IC50 was 28000 nM.

Which IC50 [1] does the source give for `CCC[C@H](O)[C@H](CNCc1ccc(C)cc1C)NC(=O)CC(=O)Nc1cc(C(F)(F)F)cc(C(F)(F)F)c1` here?
The IC50 was 690 nM.

For `CCC[C@H](O)[C@H](CNCc1ccc(C)cc1C)NC(=O)CNC(=O)c1cc(C(F)(F)F)ccc1NC(=O)N1CCCC1`, which IC50 [1] is on record?
Its IC50 is 5.8 nM.

Which IC50 [1] does the source give for `CCCNc1cc(NC(=O)CC(=O)N[C@@H](CNCc2ccc(C)cc2C)[C@@H](O)CCC)cc(C(F)(F)F)c1` here?
The IC50 was 20 nM.

For `CCC[C@H](O)[C@H](CNCc1ccc(C)cc1C)NC(=O)CNC(=O)c1cc(C(F)(F)F)ccc1NC(=O)OC(C)(C)C`, which inhibition [2] is on record?
The inhibition was “Active”.

What about the IC50 [1] of the same compound?
Its IC50 is 4 nM.

For `CC[C@H](O)[C@H](CNCc1ccc(C)cc1C)NC(=O)CNC(=O)c1cccc(C(F)(F)F)c1`, which IC50 [1] is on record?
Its IC50 is 64 nM.

With `CCC[C@H](O)[C@H](CNCc1ccc(C)cc1C)NC(=O)CNC(=O)c1cc(C(F)(F)F)ccc1NC(C)(C)C` as the compound, how does the IC50 [1] read?
The IC50 was 7.4 nM.

With `CCC[C@H](O)[C@H](CNCc1ccc(C)cc1C)NC(=O)CNC(=O)c1cc(C(F)(F)F)ccc1N` as the compound, how does the inhibition [2] read?
The inhibition was “Active”.

What about the IC50 [1] of the same compound?
Its IC50 is 3.4 nM.

With `Cc1ccc(CNC[C@H](NC(=O)CNC(=O)c2cccc(C(F)(F)F)c2)[C@@H](O)CC(C)(C)C)c(C)c1` as the compound, how does the IC50 [1] read?
The IC50 was 19 nM.

Which IC50 [1] does the source give for `CCC[C@H](O)[C@H](CNCc1ccc(C)cc1C)NC(=O)CC(=O)Nc1cc(C(F)(F)F)ccc1OC` here?
The IC50 was 217 nM.

With `CCC[C@H](O)[C@H](CNCc1ccc(C)cc1C)NC(=O)CNC(=O)c1cc(C(F)(F)F)ccc1NC(=O)NCC` as the compound, how does the inhibition [2] read?
Its inhibition is “Active”.

And the IC50 [3]?
The IC50 was 86 nM.

What about the Activity [4] of the same compound?
Its Activity is “Active”.

And the Selectivity ratio [5]?
The Selectivity ratio was > 1000.

What about the Selectivity ratio [6] of the same compound?
The Selectivity ratio was > 1000.

And the bioavailability [7]?
The bioavailability was 29%.

And the IC50 [1]?
Its IC50 is 3.6 nM.

And the clearance [8]?
The clearance was 85 mL/min/kg.

What about the Activity [9] of the same compound?
Its Activity is “Active”.

For `Cc1ccc(CNC[C@H](NC(=O)CNC(=O)c2cccc(C(F)(F)F)c2)[C@H](O)C(C)C)c(C)c1`, which IC50 [1] is on record?
Its IC50 is 100 nM.

For `CCC[C@H](O)[C@H](CNCc1ccc(C)cc1C)NC(=O)CC(=O)Nc1cc(C(F)(F)F)ccc1N`, which IC50 [1] is on record?
The IC50 was 43 nM.

With `CCC[C@H](O)[C@H](CNCc1ccc(C)cc1C)NC(=O)Cc1nc2ccc(C(F)(F)F)cc2[nH]1` as the compound, how does the inhibition (INH) [10] read?
Its inhibition (INH) is 6%.

With `Cc1ccc(CNC[C@H](NC(=O)CNC(=O)c2cccc(C(F)(F)F)c2)[C@H](O)CC(C)C)c(C)c1` as the compound, how does the inhibition [2] read?
The inhibition was “inactive”.

Which IC50 [1] does the source give for `CCC[C@H](O)[C@H](CNCc1ccc(C)cc1C)NC(=O)CC(=O)Nc1cc(NC(=O)OC(C)(C)C)cc(C(F)(F)F)c1` here?
Its IC50 is 340 nM.

With `CCC(O)(CC)[C@H](CNCc1ccc(C)cc1C)NC(=O)CNC(=O)c1cc(C(F)(F)F)ccc1N` as the compound, how does the IC50 [1] read?
The IC50 was 41 nM.

Which IC50 [1] does the source give for `CCC[C@H](O)[C@H](CN(C)Cc1ccc(C)cc1C)NC(=O)CNC(=O)c1cc(C(F)(F)F)ccc1NC(=O)NC(C)C` here?
The IC50 was 440 nM.

With `CCC[C@H](O)[C@H](CNCc1ccc(C)cc1C)N1CC[C@H](NC(=O)c2cc(C(F)(F)F)ccc2N)C1=O` as the compound, how does the IC50 [1] read?
The IC50 was 900 nM.

Which IC50 [1] does the source give for `CCC[C@H](O)[C@H](CNCc1ccc(C)cc1C)NC(=O)CC(=O)Nc1cc(OC)cc(C(F)(F)F)c1` here?
The IC50 was 24 nM.

Which IC50 [1] does the source give for `CCC[C@H](O)[C@H](CNCc1ccc(C)cc1C)NC(=O)CC(=O)Nc1cc(N)cc(C(F)(F)F)c1` here?
Its IC50 is 3.8 nM.

With `CCC[C@H](O)[C@H](CNCc1ccc(C)cc1C)N1CC[C@H](NC(=O)c2cc(C(F)(F)F)ccc2NC(=O)OC(C)(C)C)C1=O` as the compound, how does the IC50 [1] read?
Its IC50 is 1040 nM.

For `Cc1ccc(CNC[C@H](NC(=O)CNC(=O)c2cccc(C(F)(F)F)c2)[C@H](O)c2ccccc2)c(C)c1`, which IC50 [1] is on record?
The IC50 was > 1000 nM.

With `Cc1ccc(CNC[C@H](NC(=O)CNC(=O)c2cccc(C(F)(F)F)c2)[C@@H](O)CC(C)C)c(C)c1` as the compound, how does the inhibition [2] read?
Its inhibition is “inactive”.

Which IC50 [1] does the source give for `CCC[C@H](O)[C@H](CNCc1ccc(C)cc1C)N1CC[C@H](NC(=O)c2cc(N)cc(C(F)(F)F)c2)C1=O` here?
The IC50 was 1230 nM.

For `CCC[C@H](O)[C@H](CNCc1ccc(C)cc1C)NC(=O)CNC(=O)c1cc(C(F)(F)F)ccc1NC(=O)N1CCNCC1`, which IC50 [1] is on record?
The IC50 was 2.5 nM.

Which IC50 [1] does the source give for `Cc1ccc(CNC[C@H](NC(=O)CNC(=O)c2cc(C(F)(F)F)ccc2N)C(C)(C)O)c(C)c1` here?
Its IC50 is 160 nM.

For `CCC[C@H](O)[C@H](CNCc1ccc(C)cc1C)NC(=O)CC(=O)Nc1cc(NC)cc(C(F)(F)F)c1`, which IC50 [1] is on record?
Its IC50 is 7.1 nM.

Which IC50 [1] does the source give for `Cc1ccc(CNC[C@H](NC(=O)CNC(=O)c2cc(C(F)(F)F)ccc2N)C2(O)CCCC2)c(C)c1` here?
The IC50 was 87 nM.

For `CCC[C@H](O)[C@H](CNCc1ccc(C)cc1C)NC(=O)CNC(=O)c1cccc(C(F)(F)F)c1`, which inhibition [2] is on record?
Its inhibition is “Active”.

For `CC[C@H](O)[C@H](CNCc1ccc(C)cc1C)NC(=O)CNC(=O)c1cc(C(F)(F)F)ccc1N`, which IC50 [1] is on record?
The IC50 was 17 nM.

With `CCCC[C@@H](O)[C@H](CNCc1ccc(C)cc1C)NC(=O)CNC(=O)c1cccc(C(F)(F)F)c1` as the compound, how does the IC50 [1] read?
Its IC50 is 180 nM.

For `CCC[C@H](O)[C@H](CNCc1ccc(C)cc1C)NC(=O)CC(=O)Nc1cc(Br)cc(C(F)(F)F)c1`, which IC50 [1] is on record?
The IC50 was 710 nM.

With `CCC[C@@H](O)[C@H](CNCc1ccc(C)cc1C)NC(=O)CNC(=O)c1cc(C(F)(F)F)ccc1N` as the compound, how does the inhibition [2] read?
Its inhibition is “inactive”.

And the IC50 [1]?
Its IC50 is 7 nM.

With `CCC[C@H](O)[C@H](CNCc1ccc(C)cc1C)NC(=O)CC(=O)Nc1cccc(C(F)(F)F)c1` as the compound, how does the IC50 [1] read?
Its IC50 is 28 nM.

With `CCC[C@H](O)[C@H](CNCc1ccc(C)cc1C)NC(=O)Cc1nc2c(C(F)(F)F)cccc2[nH]1` as the compound, how does the IC50 [1] read?
The IC50 was 49 nM.

Which IC50 [1] does the source give for `CCC[C@H](O)[C@H](CNCc1ccc(C)cc1C)NC(=O)CC(=O)Nc1cc(NCC)cc(C(F)(F)F)c1` here?
Its IC50 is 4.5 nM.

With `CC[C@@H](O)[C@H](CNCc1ccc(C)cc1C)NC(=O)CNC(=O)c1cccc(C(F)(F)F)c1` as the compound, how does the IC50 [1] read?
Its IC50 is 390 nM.

Which IC50 [1] does the source give for `CCC[C@H](O)[C@H](CNCc1ccc(C)cc1C)NC(=O)CNC(=O)c1cc(C(F)(F)F)ccc1NC(=O)N1CCOCC1` here?
The IC50 was 3.8 nM.

For `CCC[C@H](O)[C@H](CNCc1ccc(C)cc1C)NC(=O)CNc1n[nH]c2ccc(C(F)(F)F)cc12`, which IC50 [1] is on record?
The IC50 was 10 nM.

For `CCCC[C@H](O)[C@H](CNCc1ccc(C)cc1C)NC(=O)CNC(=O)c1cccc(C(F)(F)F)c1`, which IC50 [1] is on record?
Its IC50 is 5 nM.

For `CCC[C@H](O)[C@H](CNCc1ccc(C)cc1C)NC(=O)CNC(=O)c1cc(C(F)(F)F)ccc1NCc1ccccc1`, which IC50 [1] is on record?
The IC50 was 9.3 nM.

For `CCC[C@H](O)[C@H](CNCc1ccc(C)cc1C)NC(=O)CNC(=O)c1cc(C(F)(F)F)ccc1NC(=O)N1CCC1`, which IC50 [1] is on record?
The IC50 was 2.1 nM.

Which IC50 [1] does the source give for `CCC[C@H](O)[C@H](CNCc1ccc(C)cc1C)NC(=O)CC(=O)Nc1cc(C(F)(F)F)ccc1NC(=O)OC(C)(C)C` here?
Its IC50 is 240 nM.

With `Cc1ccc(CNC[C@H](NC(=O)CNC(=O)c2cccc(C(F)(F)F)c2)[C@@H](O)C(C)C)c(C)c1` as the compound, how does the IC50 [1] read?
Its IC50 is 65 nM.

With `CCC[C@H](O)[C@H](CN(Cc1ccc(C)cc1C)C(C)C)NC(=O)CNC(=O)c1cc(C(F)(F)F)ccc1NC(=O)NC(C)C` as the compound, how does the IC50 [1] read?
The IC50 was 1700 nM.

With `Cc1ccc(CNC[C@H](NC(=O)CNC(=O)c2cccc(C(F)(F)F)c2)[C@H](O)CC(C)(C)C)c(C)c1` as the compound, how does the IC50 [1] read?
The IC50 was 600 nM.

For `CCCC(O)(CCC)[C@H](CNCc1ccc(C)cc1C)NC(=O)CNC(=O)c1cc(C(F)(F)F)ccc1N`, which IC50 [1] is on record?
Its IC50 is 27 nM.

With `CCC[C@H](O)[C@H](CNCc1ccc(C)cc1C)NC(=O)CNC(=O)c1cc(C(F)(F)F)ccc1NC(=O)NC` as the compound, how does the IC50 [1] read?
Its IC50 is 6.7 nM.

For `Cc1ccc(CNC[C@H](NC(=O)CNC(=O)c2cccc(C(F)(F)F)c2)[C@@H](O)c2ccccc2)c(C)c1`, which IC50 [1] is on record?
Its IC50 is 100 nM.

With `CCC[C@H](OC)[C@H](CNCc1ccc(C)cc1C)NC(=O)CNC(=O)c1cc(C(F)(F)F)ccc1N` as the compound, how does the IC50 [1] read?
The IC50 was 11 nM.

From ChEMBL document CHEMBL2016523, “Discovery of an orally-bioavailable CC Chemokine Receptor 2 antagonist derived from an acyclic diaminoalcohol backbone” (Bioorg Med Chem Lett, 2012)
